In ChEMBL document CHEMBL5614367, “Hydroxamic acid hybrids: Histone deacetylase inhibitors with anticancer therapeutic potency” (Eur J Med Chem, 2023):

Assays:
HOS = experiment: Antiproliferative activity against human HOS cells; format: functional
SAOS-2 = experiment: Antiproliferative activity against human SAOS-2 cells; format: functional
PC-3 [1] = experiment: Antiproliferative activity against human PC-3 cells incubated for 48 hrs by colorimetric method; format: functional, cell-based; conditions: PC-3, 48 h
NCI-H23 = experiment: Antiproliferative activity against human NCI-H23 cells incubated for 48 hrs by colorimetric method; format: functional, cell-based; conditions: NCI-H23, 48 h
SW-620 [2] = experiment: Antiproliferative activity against human SW620 cells incubated for 48 hrs by colorimetric method; format: functional, cell-based; conditions: SW-620, 48 h
143B = experiment: Antiproliferative activity against human 143B cells; format: functional
CCRF-HSB-2 = experiment: Antiproliferative activity against human CCRF-HSB-2 cells; format: functional, cell-based
[3] = biological target: T1, Protein deacetylase HDAC6 (Homo sapiens, UniProt Q9UBN7); experiment: Inhibition of HDAC6 (unknown origin)
T1 sequence (Q9UBN7 whole entry): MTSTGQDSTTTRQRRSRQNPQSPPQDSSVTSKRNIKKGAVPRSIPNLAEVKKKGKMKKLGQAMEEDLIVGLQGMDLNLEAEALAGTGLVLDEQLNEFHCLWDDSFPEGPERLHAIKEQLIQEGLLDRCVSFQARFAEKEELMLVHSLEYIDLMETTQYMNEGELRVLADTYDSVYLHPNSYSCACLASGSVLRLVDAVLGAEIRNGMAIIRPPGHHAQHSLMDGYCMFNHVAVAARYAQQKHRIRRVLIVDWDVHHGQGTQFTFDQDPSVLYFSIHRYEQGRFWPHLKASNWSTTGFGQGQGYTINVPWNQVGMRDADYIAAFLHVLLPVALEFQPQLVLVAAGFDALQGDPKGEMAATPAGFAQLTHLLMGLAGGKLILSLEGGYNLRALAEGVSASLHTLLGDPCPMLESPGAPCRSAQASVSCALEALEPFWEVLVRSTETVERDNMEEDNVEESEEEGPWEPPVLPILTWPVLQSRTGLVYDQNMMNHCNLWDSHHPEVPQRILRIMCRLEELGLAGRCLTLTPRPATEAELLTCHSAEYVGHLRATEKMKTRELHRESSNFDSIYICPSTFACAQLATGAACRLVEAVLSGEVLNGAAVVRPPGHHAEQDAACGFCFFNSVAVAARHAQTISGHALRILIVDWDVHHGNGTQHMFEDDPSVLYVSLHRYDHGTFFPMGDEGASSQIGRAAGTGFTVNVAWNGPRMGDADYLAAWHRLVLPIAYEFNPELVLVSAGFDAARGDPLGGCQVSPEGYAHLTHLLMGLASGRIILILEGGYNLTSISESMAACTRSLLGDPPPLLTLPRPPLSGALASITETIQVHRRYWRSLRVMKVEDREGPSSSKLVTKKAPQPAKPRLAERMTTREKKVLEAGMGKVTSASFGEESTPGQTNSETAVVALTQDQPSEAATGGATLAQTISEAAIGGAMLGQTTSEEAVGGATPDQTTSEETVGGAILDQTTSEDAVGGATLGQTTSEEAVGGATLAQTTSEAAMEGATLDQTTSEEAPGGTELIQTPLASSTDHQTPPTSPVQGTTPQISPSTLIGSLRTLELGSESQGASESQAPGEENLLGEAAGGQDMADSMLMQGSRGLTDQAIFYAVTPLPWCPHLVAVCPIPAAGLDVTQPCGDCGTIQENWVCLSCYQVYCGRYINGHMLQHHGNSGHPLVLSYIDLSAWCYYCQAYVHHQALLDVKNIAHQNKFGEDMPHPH

Jurkat = experiment: Antiproliferative activity against human Jurkat cells; format: functional, cell-based
HL-60 [4] = experiment: Antiproliferative activity against human HL-60 cells; format: functional, cell-based
MOLT-4 [5] = experiment: Antiproliferative activity against human MOLT-4 cells; format: functional, cell-based
TALL-1 = experiment: Antiproliferative activity against human TALL-1 cells; format: functional, cell-based
K562 [6] = experiment: Antiproliferative activity against human K562 cells; format: functional, cell-based
[7] = biological target: T1, Protein deacetylase HDAC6; experiment: Inhibition of HDAC6 (unknown origin) incubated for 30 mins by fluorescence based microplate reader analysis
Histone deacetylase 3 = Histone deacetylase 3 (Homo sapiens, UniProt O15379); experiment: Inhibition of HDAC3 (unknown origin) incubated for 30 mins by fluorescence based microplate reader analysis
Histone deacetylase 2 = Histone deacetylase 2 (Homo sapiens, UniProt Q92769); experiment: Inhibition of HDAC2 (unknown origin) incubated for 30 mins by fluorescence based microplate reader analysis
KYSE-30 = experiment: cells; format: functional, cell-based; conditions: Homo sapiens, KYSE-30, 72 h
A549 [8] = experiment: cells; format: functional, cell-based; conditions: Homo sapiens, A549, 72 h
Raji = experiment: cells; format: functional, cell-based; conditions: Homo sapiens, 72 h
HepG2 = experiment: cells; format: functional, cell-based; conditions: Homo sapiens, HepG2, 72 h
A549 [9] = experiment: Antitumor activity against human A549 cells xenografted in zebrafish model assessed as inhibition of cell proliferation incubated for 5 days by fluorescence microscopic analysis; format: functional, cell-based; conditions: A549, 120 h
HGC-27 = experiment: cells; format: functional, cell-based; conditions: Homo sapiens, HGC-27, 72 h
TPC1 = experiment: cells; format: functional, cell-based; conditions: Homo sapiens, TPC1, 72 h
[10] = Cytotoxicity against rat H9c2 cells assessed as inhibition of cell growth incubated for 72 hrs by MTT assay; format: toxicity, cell-based
HL-60 [11] = experiment: cells; format: functional, cell-based; conditions: Homo sapiens, HL-60, 72 h
[12] = Cytotoxicity against human CCC-HEL-1 cells assessed as inhibition of cell growth incubated for 72 hrs by MTT assay; format: toxicity, cell-based
MV4-11 = experiment: Antiproliferative activity against human MV4-11 cells measured after 72 hrs by CCK-8 assay; format: functional, cell-based; conditions: MV4-11, 72 h
SU-DHL-2 = experiment: Antiproliferative activity against human SU-DHL-2 cells measured after 72 hrs by CCK-8 assay; format: functional, cell-based; conditions: SU-DHL-2, 72 h
WSUDLCL2 [13] = experiment: Antiproliferative activity against human WSUDLCL2 cells measured after 72 hrs by CCK-8 assay; format: functional, cell-based; conditions: WSUDLCL2, 72 h
K562 [14] = experiment: Antiproliferative activity against human K562 cells measured after 72 hrs by CCK-8 assay; format: functional, cell-based; conditions: K562, 72 h
HEL [15] = experiment: Antiproliferative activity against human HEL cells measured after 72 hrs by CCK-8 assay; format: functional, cell-based
Histone deacetylase 1 = Histone deacetylase 1 (Homo sapiens, UniProt Q13547); experiment: Inhibition of HDAC1 (unknown origin) preincubated for 10 mins followed by substrate addition and measured after 30 mins by fluorescence based microplate reader analysis
WSUDLCL2 [16] = experiment: Antitumor activity against human WSUDLCL2 cells xenografted in mouse assessed as tumor growth inhibition at 50 mg/kg, ip administered for 21 days; format: functional; conditions: WSUDLCL2, 504 h, time 21 day, read-out: TGI
KG-1 = experiment: Antiproliferative activity against human KG-1 cells assessed as inhibition of cell growth incubated for 72 hrs by MTT assay; format: functional, cell-based; conditions: KG-1, 72 h
MCF7 = experiment: Antiproliferative activity against human MCF7 cells assessed as inhibition of cell growth incubated for 72 hrs by MTT assay; format: functional, cell-based; conditions: MCF7, 72 h
MOLT-4 [17] = experiment: Antiproliferative activity against human MOLT-4 cells assessed as inhibition of cell growth incubated for 72 hrs by MTT assay; format: functional, cell-based; conditions: MOLT-4, 72 h
SK-N-BE(2) = experiment: Antiproliferative activity against human SK-N-BE(2) cells assessed as inhibition of cell growth incubated for 72 hrs by MTT assay; format: functional, cell-based; conditions: SKNBE2, 72 h
PC-3 [18] = experiment: Antiproliferative activity against human PC-3 cells assessed as inhibition of cell growth incubated for 72 hrs by MTT assay; format: functional, cell-based; conditions: PC-3, 72 h
HEL [19] = experiment: Antiproliferative activity against human HEL cells assessed as inhibition of cell growth incubated for 72 hrs by MTT assay; format: functional, cell-based
MDA-MB-231 [20] = experiment: Antiproliferative activity against human MDA-MB-231 cells assessed as inhibition of cell growth incubated for 72 hrs by MTT assay; format: functional, cell-based; conditions: MDA-MB-231, 72 h
SW-620 [21] = experiment: Antiproliferative activity against human SW620 cells; format: functional, cell-based
PC-3 [22] = experiment: Antiproliferative activity against human PC-3 cells; format: functional, cell-based
MDA-MB-231 [23] = experiment: Antiproliferative activity against human MDA-MB-231 cells

Chain of Histone deacetylase 3 (O15379 whole entry): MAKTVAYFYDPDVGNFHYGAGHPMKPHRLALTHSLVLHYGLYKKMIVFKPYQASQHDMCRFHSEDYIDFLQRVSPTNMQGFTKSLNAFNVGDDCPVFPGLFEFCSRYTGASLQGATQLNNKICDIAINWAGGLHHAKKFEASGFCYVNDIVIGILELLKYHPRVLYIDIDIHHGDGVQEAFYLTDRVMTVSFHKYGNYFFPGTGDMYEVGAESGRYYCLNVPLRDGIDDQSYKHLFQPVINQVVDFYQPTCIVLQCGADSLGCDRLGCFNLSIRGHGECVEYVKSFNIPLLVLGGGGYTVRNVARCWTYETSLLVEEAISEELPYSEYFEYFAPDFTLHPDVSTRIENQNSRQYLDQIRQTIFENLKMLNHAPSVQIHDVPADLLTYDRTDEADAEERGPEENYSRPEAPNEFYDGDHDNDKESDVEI
Chain of Histone deacetylase 1 (Q13547 whole entry): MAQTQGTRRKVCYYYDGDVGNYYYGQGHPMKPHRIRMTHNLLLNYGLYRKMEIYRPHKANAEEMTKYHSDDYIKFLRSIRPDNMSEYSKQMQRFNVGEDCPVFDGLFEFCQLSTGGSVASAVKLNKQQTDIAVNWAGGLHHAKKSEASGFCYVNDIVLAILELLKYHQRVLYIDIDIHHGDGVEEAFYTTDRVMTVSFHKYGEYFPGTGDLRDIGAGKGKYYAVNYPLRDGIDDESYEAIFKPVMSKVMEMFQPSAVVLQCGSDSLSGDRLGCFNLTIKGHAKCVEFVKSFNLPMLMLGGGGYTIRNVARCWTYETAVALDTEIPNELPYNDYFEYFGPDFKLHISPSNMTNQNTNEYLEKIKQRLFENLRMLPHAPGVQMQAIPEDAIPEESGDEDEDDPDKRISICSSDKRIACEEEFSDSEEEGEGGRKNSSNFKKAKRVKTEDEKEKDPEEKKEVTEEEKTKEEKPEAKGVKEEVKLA
Chain of Histone deacetylase 2 (Q92769 whole entry): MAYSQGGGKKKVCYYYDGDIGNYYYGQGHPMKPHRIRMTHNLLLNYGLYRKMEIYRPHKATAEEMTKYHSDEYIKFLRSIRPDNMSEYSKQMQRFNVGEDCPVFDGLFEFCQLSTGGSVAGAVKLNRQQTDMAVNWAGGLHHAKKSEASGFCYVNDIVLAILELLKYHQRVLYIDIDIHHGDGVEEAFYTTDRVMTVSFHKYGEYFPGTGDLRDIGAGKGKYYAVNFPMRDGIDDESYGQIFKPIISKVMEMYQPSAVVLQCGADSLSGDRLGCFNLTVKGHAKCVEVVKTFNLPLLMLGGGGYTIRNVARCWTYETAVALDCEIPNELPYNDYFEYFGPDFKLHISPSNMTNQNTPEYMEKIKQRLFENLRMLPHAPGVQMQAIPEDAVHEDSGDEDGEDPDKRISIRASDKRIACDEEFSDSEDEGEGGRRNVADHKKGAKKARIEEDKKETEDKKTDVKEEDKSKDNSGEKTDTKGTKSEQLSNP

`O=C(/C=C/c1cccc(S(=O)(=O)Nc2ccccc2)c1)NO` [BELINOSTAT] gave a GI50 (HOS) of 3.3 µM, a GI50 (SAOS-2) of 3.3 µM and an IC50 (PC-3 [1]) of 2.53 µM. For the same compound, the IC50 (NCI-H23) was 2.53 µM, the IC50 (SW-620 [2]) was 2.53 µM and the GI50 (143B) was 3.3 µM.
Work on `O=C(NO)c1ccc(CN(Cc2nnnn2Cc2ccccc2)C(=O)c2ccccc2C(F)(F)F)cc1` yielded an IC50 (CCRF-HSB-2) of 22.5 µM, an IC50 [3] of 0.06 µM and an IC50 (Jurkat) of 22.5 µM. For the same compound, the IC50 (HL-60 [4]) was 22.5 µM, the IC50 (MOLT-4 [5]) was 22.5 µM and the IC50 (TALL-1) was 22.5 µM. It also gave an IC50 (K562 [6]) of 22.5 µM.
Work on `O=C(CCCCCCC(=O)Nc1nc2c(s1)C[C@@H](NC(=O)c1cccc3ccccc13)CC2)NO` yielded an IC50 [7] of 0.0014 µM, an IC50 (Histone deacetylase 3) of 0.0014 µM and an IC50 (Histone deacetylase 2) of 0.0014 µM. The IC50 (KYSE-30) was 1.22 µM, the IC50 (A549 [8]) was 1.22 µM and the IC50 (Raji) was 1.22 µM. It also gave an IC50 (HepG2) of 1.22 µM, an IC50 (A549 [9]) of 1.5 µM and an IC50 (HGC-27) of 1.22 µM. For the same compound, the IC50 (TPC1) was 1.22 µM, the IC50 at 72 h [10] was 43.8 µM and the IC50 (HL-60 [11]) was 1.22 µM. It also gave an IC50 at 72 h [12] of 24.4 µM.
For `C=C[C@]1(C)CC[C@@H](C(=C)Cn2cccn2)C[C@H]1C(=C)CN1CCN(C(=O)CCCCCCC(=O)NO)CC1`, the IC50 (MV4-11) was 1 µM, the IC50 (SU-DHL-2) was 1 µM and the IC50 (WSUDLCL2 [13]) was 1 µM. The IC50 (K562 [14]) was 1 µM, the IC50 (HEL [15]) was 1 µM and the IC50 (Histone deacetylase 1) was 0.008 µM.
With `C=C[C@@]1(C)CC[C@H](C(=C)CN2CCN(C(=O)CCCCCCC(=O)NO)CC2)C[C@@H]1C(=C)Cn1cccn1` the IC50 (MV4-11) was 0.79 µM, the inhibition in vivo at 50 mg/kg (WSUDLCL2 [16]) was 31.5% and the IC50 (SU-DHL-2) was 0.79 µM. It also gave an IC50 (WSUDLCL2 [13]) of 0.79 µM, an IC50 (K562 [14]) of 0.79 µM and an IC50 (HEL [15]) of 0.79 µM.
`Nc1nc2ccc(OC(F)(F)F)cc2s1` [RILUZOLE] showed an IC50 (KG-1) greater than 10 µM, an IC50 (MCF7) greater than 10 µM and an IC50 (MOLT-4 [17]) greater than 10 µM. It also gave an IC50 (SK-N-BE(2)) greater than 10 µM, an IC50 (PC-3 [18]) greater than 10 µM and an IC50 (HEL [19]) greater than 10 µM. For the same compound, the IC50 (MDA-MB-231 [20]) was greater than 10 µM.
For `O=C(/C=C/c1ccc2nn(Cc3ccc(Cl)cc3)cc2c1)NO`, the IC50 [3] was 0.231 µM, the IC50 (SW-620 [21]) was 0.196 µM and the IC50 (PC-3 [22]) was 0.196 µM. The IC50 (MDA-MB-231 [23]) was 0.196 µM.
